System: 855422-203-R-J1-PDC spheroids with HUVEC/MSC, viability
Experiment: Anticancer human tumor 855422-203-R-J1-PDC patient-derived bladder carcinoma cell line growth inhibition [PI3K]
Settings: for IC50: curve of first compound; for viability, T/C: stronger effect = lower value
Method in brief: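 Tumor cells grown as multi-cell spheroids with HUVEC endothelial cells and MSC fibroblast-like stroma were treated with targeted agents combined with inavolisib, alpelisib, duvelisib or copanlisib. Doses fell in half-log steps from near clinical Cmax, else from 10 microM. Viability was measured.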

[1] = second compound 0.00316 µM, first compound 0.0316 µM
[2] = second compound 0.00316 µM, first compound 0.1 µM
[3] = second compound 0.00316 µM, first compound 0.316 µM
[4] = second compound 0.00316 µM, first compound 1 µM
[5] = second compound 0.00316 µM, first compound 3.16 µM
[6] = second compound 0.00316 µM, first compound 10 µM
[7] = second compound 0.01 µM, first compound 0.0316 µM
[8] = second compound 0.01 µM, first compound 0.1 µM
[9] = second compound 0.01 µM, first compound 0.316 µM
[10] = second compound 0.01 µM, first compound 1 µM
[11] = second compound 0.01 µM, first compound 3.16 µM
[12] = second compound 0.01 µM, first compound 10 µM
[13] = second compound 0.0316 µM, first compound 0.0316 µM
[14] = second compound 0.0316 µM, first compound 0.1 µM
[15] = second compound 0.0316 µM, first compound 0.316 µM
[16] = second compound 0.0316 µM, first compound 1 µM
[17] = second compound 0.0316 µM, first compound 3.16 µM
[18] = second compound 0.0316 µM, first compound 10 µM
[19] = second compound 0.1 µM, first compound 0.0316 µM
[20] = second compound 0.1 µM, first compound 0.1 µM
[21] = second compound 0.1 µM, first compound 0.316 µM
[22] = second compound 0.1 µM, first compound 1 µM
[23] = second compound 0.1 µM, first compound 3.16 µM
[24] = second compound 0.1 µM, first compound 10 µM
[25] = second compound 0.316 µM, first compound 0.0316 µM
[26] = second compound 0.316 µM, first compound 0.1 µM
[27] = second compound 0.316 µM, first compound 0.316 µM
[28] = second compound 0.316 µM, first compound 1 µM
[29] = second compound 0.316 µM, first compound 3.16 µM
[30] = second compound 0.316 µM, first compound 10 µM
[31] = second compound 1 µM, first compound 0.0316 µM
[32] = second compound 1 µM, first compound 0.1 µM
[33] = second compound 1 µM, first compound 0.316 µM
[34] = second compound 1 µM, first compound 1 µM
[35] = second compound 1 µM, first compound 3.16 µM
[36] = second compound 1 µM, first compound 10 µM
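Further: agents incubated with spheroids for one week before read-out.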
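Wherever viability, T/C is given: 100% = DMSO vehicle-treated control wells.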

CC(C)NCC(C(=O)N1CCN(c2ncnc3c2C(C)CC3O)CC1)c1ccc(Cl)cc1 (centres undefined) + CC(Nc1ccc2c(c1)OCCn1cc(N3C(=O)OCC3C(F)F)nc1-2)C(N)=O
IC50 (second compound 0.00316 µM): 0.836 µM
IC50 (second compound 0.01 µM): 1.12 µM
IC50 (second compound 0.0316 µM): 1.16 µM
IC50 (second compound 0.1 µM): 0.671 µM
IC50 (second compound 0.316 µM): < 0.0316 µM
IC50 (second compound 1 µM): < 0.0316 µM
viability, T/C [1]: 107%
viability, T/C [2]: 65.8%
viability, T/C [3]: 70.4%
viability, T/C [4]: 45.3%
viability, T/C [5]: 38.7%
viability, T/C [6]: 20.4%
viability, T/C [7]: 82.2%
viability, T/C [8]: 65.8%
viability, T/C [9]: 71.3%
viability, T/C [10]: 51.5%
viability, T/C [11]: 32.2%
viability, T/C [12]: 18.4%
viability, T/C [13]: 66.6%
viability, T/C [14]: 70%
viability, T/C [15]: 67.7%
viability, T/C [16]: 49.1%
viability, T/C [17]: 34.8%
viability, T/C [18]: 16.4%
viability, T/C [19]: 65.8%
viability, T/C [20]: 63.6%
viability, T/C [21]: 61.9%
viability, T/C [22]: 42.8%
viability, T/C [23]: 27.2%
viability, T/C [24]: 12.4%
viability, T/C [25]: 47.6%
viability, T/C [26]: 49.6%
viability, T/C [27]: 45.8%
viability, T/C [28]: 38.3%
viability, T/C [29]: 24%
viability, T/C [30]: 11.9%
viability, T/C [31]: 39.2%
viability, T/C [32]: 36.5%
viability, T/C [33]: 31.4%
viability, T/C [34]: 28.3%
viability, T/C [35]: 20.9%
viability, T/C [36]: 10.5%

C#Cc1c(F)ccc2cc(O)cc(-c3ncc4c(N5CC6CCC(C5)N6)nc(OCC56CCCN5CC(F)C6)nc4c3F)c12 (centres undefined) + CC(Nc1ccc2c(c1)OCCn1cc(N3C(=O)OCC3C(F)F)nc1-2)C(N)=O
IC50 (second compound 0.00316 µM): > 10 µM
IC50 (second compound 0.01 µM): > 10 µM
IC50 (second compound 0.0316 µM): > 10 µM
IC50 (second compound 0.1 µM): > 10 µM
IC50 (second compound 0.316 µM): 3.61 µM
IC50 (second compound 1 µM): < 0.0316 µM
viability, T/C [1]: 94.4%
viability, T/C [2]: 85.1%
viability, T/C [3]: 109%
viability, T/C [4]: 89.2%
viability, T/C [5]: 107%
viability, T/C [6]: 110%
viability, T/C [7]: 106%
viability, T/C [8]: 93%
viability, T/C [9]: 96.6%
viability, T/C [10]: 98.2%
viability, T/C [11]: 110%
viability, T/C [12]: 116%
viability, T/C [13]: 82.4%
viability, T/C [14]: 87.8%
viability, T/C [15]: 89.9%
viability, T/C [16]: 92.4%
viability, T/C [17]: 105%
viability, T/C [18]: 92.9%
viability, T/C [19]: 71.7%
viability, T/C [20]: 69.8%
viability, T/C [21]: 58.7%
viability, T/C [22]: 82.8%
viability, T/C [23]: 77.8%
viability, T/C [24]: 73.6%
viability, T/C [25]: 55.5%
viability, T/C [26]: 55.3%
viability, T/C [27]: 44.7%
viability, T/C [28]: 54.6%
viability, T/C [29]: 53.9%
viability, T/C [30]: 29.1%
viability, T/C [31]: 38.7%
viability, T/C [32]: 31.5%
viability, T/C [33]: 35.1%
viability, T/C [34]: 32.8%
viability, T/C [35]: 29.4%
viability, T/C [36]: 17.6%
